Data set [1] in a line: Human microsome stability assay. Type of data set: in vitro ADME. Conditions: human liver microsomes, 1 μM test compound, 0.5 mg/mL microsomal protein, 37° C., pH 7.4, 0-30 minutes. The method, then: The human microsomal stability assay is used for early assessment of metabolic stability of a test compound in human liver microsomes.
Human liver microsomes (Cat. NO.: 452117, Corning, USA; Cat. NO.: H2610, Xenotech, USA) were preincubated with test compound for 10 minutes at 37° C. in 100 mM potassium phosphate buffer, pH 7.4. The reactions were initiated by adding NADPH regenerating system. The final incubation mixtures contained 1 μM test compound, 0.5 mg/mL liver microsomal protein, 1 mM MgCl2, 1 mM NADP, 1 unit/mL isocitric dehydrogenase and 6 mM isocitric acid in 100 mM potassium phosphate buffer, pH 7.4. After incubation times of 0, 3, 6, 9, 15 and 30 minutes at 37° C., 300 μL of cold ACN (including internal standard) was added to 100 μL incubation mixture to terminate the reaction. Following precipitation and centrifugation, the amount of compound remaining in the samples was determined by LC-MS/MS. Controls of no NADPH regenerating system at zero and 30 minutes were also prepared and analyzed.

Data set [2] deals with HBeAg (surrogate marker for cccDNA) in HepDES19 cells. Nature of the data set: Engineered HepDES19 primary screen assay (HBeAg ELISA). It counts as cell-based, HBV. Conditions: Hepatitis B virus, HepDES19, 120 h, read-out: IC50 (HBeAg level, HepDES19 primary screen assay), HepDES19 cells, 5 days compound incubation, HBeAg ELISA. The procedure, abridged:
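HepDES19 cells were induced by Tet withdrawal for 8 days, then treated with half-log compound dilutions (1% DMSO final) for 5 days at 37 °C. HBeAg was measured by ELISA as the cccDNA surrogate, viability by CCK-8, and IC50 from a 4-parameter logistic fit.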
For orientation: An ELISA detects its analyte on a solid surface through an enzyme-linked reagent.

What is called IC50 is the concentration that gives 50% inhibition. For the compound `Cc1c(-c2ccc(C(F)(F)F)cc2OCCC(=O)O)oc2c(Cl)cccc2c1=O` [Example A034, 3-[2-(8-chloro-3-methyl-4-oxo-chromen-2-yl)-5-(trifluoromethyl)phenoxy]propanoic acid], in data set [1], the “Clearance of Human microsome” value was 6.15 mL/min/kg. Also, the IC50 in data set [2] was 13.4 µM.

In the case of `COc1cc(-c2cc(=O)c3cccc(Cl)c3o2)c(OCCC(=O)O)cc1OCC(F)(F)F` [Example A041, 3-[2-(8-chloro-4-oxo-chromen-2-yl)-4-methoxy-5-(2,2,2-trifluoroethoxy)phenoxy]propanoic acid], in data set [1], the “Clearance of Human microsome” value came out at 6.15 mL/min/kg. Also, the IC50 in data set [2] was 6.06 µM.

Consider `O=C(O)CCOc1cc(OC(F)(F)F)ccc1-c1cc(=O)c2ccc(C(F)(F)F)c(Cl)c2o1` [Example A042, 3-[2-[8-chloro-4-oxo-7-(trifluoromethyl)chromen-2-yl]-5-(trifluoromethoxy)phenoxy]propanoic acid], for which the “Clearance of Human microsome” value in data set [1] was found to be 6.15 mL/min/kg. In data set [2], the IC50 is 17.8 µM.

`O=C(O)CCOc1cc(C(F)(F)F)ccc1-c1oc2c(Cl)cccc2c(=O)c1O` [Example A046, 3-[2-(8-chloro-3-hydroxy-4-oxo-chromen-2-yl)-5-(trifluoromethyl)phenoxy]propanoic acid]: in data set [1], the “Clearance of Human microsome” value is given as 6.15 mL/min/kg. Also, in data set [2], the IC50 came to 7.86 µM.

On to `COc1c(-c2ccc(C(F)(F)F)cc2OCCC(=O)O)oc2c(Cl)cccc2c1=O` [Example A047, 3-[2-(8-chloro-3-methoxy-4-oxo-chromen-2-yl)-5-(trifluoromethyl)phenoxy]propanoic acid], for which the “Clearance of Human microsome” value in data set [1] is listed as 6.15 mL/min/kg. In data set [2], the IC50 came out at 1.83 µM.

`COc1cc(OCC(=O)O)c(-c2cc(=O)c3cccc(Cl)c3o2)cc1OC` [Example A050, 2-[2-(8-chloro-4-oxo-chromen-2-yl)-4,5-dimethoxy-phenoxy]acetic acid]: the “Clearance of Human microsome” value in data set [1] is 6.15 mL/min/kg. Further, the IC50 in data set [2] worked out at 11.8 µM.

For `O=C(O)COc1cc(C(F)(F)F)ccc1-c1cc(=O)c2cccc(Cl)c2o1` [Example A051, 2-[2-(8-chloro-4-oxo-chromen-2-yl)-5-(trifluoromethyl)phenoxy]acetic acid], in data set [1], the “Clearance of Human microsome” value was determined as 6.15 mL/min/kg. The IC50 in data set [2] is 2.41 µM.

`COc1cc(-c2cc(=O)c3cccc(Cl)c3o2)c(OCCCC(=O)O)cc1Br` [Example A058, 4-[5-bromo-2-(8-chloro-4-oxo-chromen-2-yl)-4-methoxy-phenoxy]butanoic acid]: the “Clearance of Human microsome” value in data set [1] stood at 6.15 mL/min/kg. In data set [2], the IC50 stood at 0.549 µM.

As to `Cc1ccc(-c2cc(=O)c3cccc(Cl)c3o2)c(OCCCC(=O)O)c1` [Example A059, 4-[2-(8-chloro-4-oxo-chromen-2-yl)-5-methyl-phenoxy]butanoic acid], in data set [1], the “Clearance of Human microsome” value is 8.34 mL/min/kg. The IC50 in data set [2] was determined as 0.622 µM.

For `COc1cc(OCCCC(=O)O)c(-c2cc(=O)c3cccc(Cl)c3o2)cc1C` [Example A060, 4-[2-(8-chloro-4-oxo-chromen-2-yl)-5-methoxy-4-methyl-phenoxy]butanoic acid], in data set [1], the “Clearance of Human microsome” value was determined as 6.15 mL/min/kg. The IC50 in data set [2] came to 5.36 µM.

For `CC(C)(COc1cc(OC(F)(F)F)ccc1-c1cc(=O)c2cccc(Cl)c2o1)C(=O)O` [Example A061, 3-[2-(8-chloro-4-oxo-chromen-2-yl)-5-(trifluoromethoxy)phenoxy]-2,2-dimethyl-propanoic acid], the “Clearance of Human microsome” value in data set [1] came out at 8.78 mL/min/kg. Further, the IC50 in data set [2] worked out at 15.9 µM.

With `CC(C)(COc1cc(C(F)(F)F)ccc1-c1cc(=O)c2cccc(Cl)c2o1)C(=O)O` [Example A062, 3-[2-(8-chloro-4-oxo-chromen-2-yl)-5-(trifluoromethyl)phenoxy]-2,2-dimethyl-propanoic acid], in data set [1], the “Clearance of Human microsome” value came out at 9.88 mL/min/kg. Besides, the IC50 in data set [2] is 13 µM.

On to `Cc1ccc(-c2cc(=O)c3cccc(Cl)c3o2)c(OCC(C)(C)C(=O)O)c1` [Example A063, 3-[2-(8-chloro-4-oxo-chromen-2-yl)-5-methyl-phenoxy]-2,2-dimethyl-propanoic acid], for which the “Clearance of Human microsome” value in data set [1] came to 6.15 mL/min/kg. For the same compound, the IC50 in data set [2] came out at 1.35 µM.

With `Cc1cc(-c2cc(=O)c3cccc(Cl)c3o2)c(OCC(C)(C)C(=O)O)cc1Cl` [Example A064, 3-[5-chloro-2-(8-chloro-4-oxo-chromen-2-yl)-4-methyl-phenoxy]-2,2-dimethyl-propanoic acid], in data set [1], the “Clearance of Human microsome” value was 9.5 mL/min/kg. The IC50 in data set [2] was 9.59 µM.

As to `O=C(O)CCCCOc1cc(C(F)(F)F)ccc1-c1cc(=O)c2cccc(Cl)c2o1` [Example A065, 5-[2-(8-chloro-4-oxo-chromen-2-yl)-5-(trifluoromethyl)phenoxy]pentanoic acid], the “Clearance of Human microsome” value in data set [1] amounted to 6.15 mL/min/kg. For the same compound, in data set [2], the IC50 was 1.9 µM.

As for `COc1cc(OCC2(CC(=O)O)CC2)c(-c2cc(=O)c3cccc(Cl)c3o2)cc1OC` [Example A067, 2-[1-[[2-(8-chloro-4-oxo-chromen-2-yl)-4,5-dimethoxy-phenoxy]methyl]cyclopropyl]acetic acid], the “Clearance of Human microsome” value in data set [1] is reported as 6.15 mL/min/kg. Further, the IC50 in data set [2] was determined as 1.68 µM.

Regarding `O=C(O)CC1(COc2cc(Br)ccc2-c2cc(=O)c3cccc(Cl)c3o2)CC1` [Example A069, 2-[1-[[5-bromo-2-(8-chloro-4-oxo-chromen-2-yl)phenoxy]methyl]cyclopropyl]acetic acid], the “Clearance of Human microsome” value in data set [1] was determined as 6.15 mL/min/kg. Moreover, the IC50 in data set [2] amounted to 2.73 µM.

As for `CC(C)(Oc1cc(Br)ccc1-c1cc(=O)c2cccc(Cl)c2o1)C(=O)O` [Example A070, 2-[5-bromo-2-(8-chloro-4-oxo-chromen-2-yl)phenoxy]-2-methyl-propanoic acid], in data set [1], the “Clearance of Human microsome” value stood at 6.15 mL/min/kg. Besides, the IC50 in data set [2] is 0.63 µM.

For the compound `CC(C)(CCCOc1cc(OC(F)(F)F)ccc1-c1cc(=O)c2cccc(Cl)c2o1)C(=O)O` [Example A071, 5-[2-(8-chloro-4-oxo-chromen-2-yl)-5-(trifluoromethoxy)phenoxy]-2,2-dimethyl-pentanoic acid], the “Clearance of Human microsome” value in data set [1] is 7.4 mL/min/kg. In addition, the IC50 in data set [2] was determined as 6.46 µM.

As to `O=C(COc1cc(C(F)(F)F)ccc1-c1cc(=O)c2cccc(Cl)c2o1)NC1CC(C(=O)O)C1` (stereo not shown) [Example A074, 3-[[2-[2-(8-chloro-4-oxo-chromen-2-yl)-5-(trifluoromethyl)phenoxy]acetyl]amino]cyclobutanecarboxylic acid], in data set [1], the “Clearance of Human microsome” value is on record as 6.15 mL/min/kg. Also, the IC50 in data set [2] stood at 2.38 µM.

In the case of `O=C(O)[C@H]1CCCN1C(=O)CCOc1cc(Br)ccc1-c1cc(=O)c2cccc(Cl)c2o1` [Example A075, (2R)-1-[3-[5-bromo-2-(8-chloro-4-oxo-chromen-2-yl)phenoxy]propanoyl]pyrrolidine-2-carboxylic acid], the “Clearance of Human microsome” value in data set [1] is given as 6.15 mL/min/kg. In addition, the IC50 in data set [2] stood at 2.85 µM.

In the case of `O=C(O)[C@@H]1CCCN1C(=O)CCOc1cc(Br)ccc1-c1cc(=O)c2cccc(Cl)c2o1` [Example A076, (2S)-1-[3-[5-bromo-2-(8-chloro-4-oxo-chromen-2-yl)phenoxy]propanoyl]pyrrolidine-2-carboxylic acid], in data set [1], the “Clearance of Human microsome” value was 6.15 mL/min/kg. Also, the IC50 in data set [2] stood at 14.1 µM.

Consider `Cc1ccc(-c2cc(=O)c3cccc(Cl)c3o2)c(OCC(=O)N2CCC[C@@H]2C(=O)O)c1` [Example A077, (2R)-1-[2-[2-(8-chloro-4-oxo-chromen-2-yl)-5-methyl-phenoxy]acetyl]pyrrolidine-2-carboxylic acid], for which, in data set [1], the “Clearance of Human microsome” value came to 8.57 mL/min/kg. In addition, the IC50 in data set [2] stood at 9 µM.

As for `Cc1ccc(-c2cc(=O)c3cccc(Cl)c3o2)c(OCC(=O)N2CCC[C@H]2C(=O)O)c1` [Example A078, (2S)-1-[2-[2-(8-chloro-4-oxo-chromen-2-yl)-5-methyl-phenoxy]acetyl]pyrrolidine-2-carboxylic acid], in data set [1], the “Clearance of Human microsome” value is 6.15 mL/min/kg. For the same compound, the IC50 in data set [2] came to 10.2 µM.

Turning to `Cc1cc(-c2cc(=O)c3cccc(Cl)c3o2)c(OCC(=O)N2CCC[C@@H]2C(=O)O)cc1Br` [Example A079, (2R)-1-[2-[5-bromo-2-(8-chloro-4-oxo-chromen-2-yl)-4-methyl-phenoxy]acetyl]pyrrolidine-2-carboxylic acid], in data set [1], the “Clearance of Human microsome” value is reported as 6.6 mL/min/kg. Further, the IC50 in data set [2] was found to be 19 µM.

As to `Cc1cc(-c2cc(=O)c3cccc(Cl)c3o2)c(OCC(=O)N2CCC[C@H]2C(=O)O)cc1Br` [Example A080, (2S)-1-[2-[5-bromo-2-(8-chloro-4-oxo-chromen-2-yl)-4-methyl-phenoxy]acetyl]pyrrolidine-2-carboxylic acid], the “Clearance of Human microsome” value in data set [1] is 6.15 mL/min/kg. Moreover, in data set [2], the 50% inhibitory concentration (IC50) was 17.5 µM.

The values above are taken from US11708344B2, “Flavone derivatives for the treatment and prophylaxis of hepatitis B virus disease” (Hoffmann-La Roche Inc., priority 2018, dated 2023).
